Measurements published in PubChem BioAssay AID2060888 (Molecular Pharmacology Branch, DTP, NCI, 2025).
“And” between values parts separate entries of the source, which are not always exact repeats. Equal entries are not always repeated.

Test system: 695427-040-R-J1-PDC complex spheroid viability
Test: Anticancer human tumor 695427-040-R-J1-PDC patient-derived colon adenocarcinoma cell line growth inhibition [RAS]
Details: for viability, T/C: stronger effect = lower value
How it was run: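 Multi-cell-type spheroids: tumor cells plus HUVEC endothelial cells and mesenchymal stem cells. RAS-pathway inhibitors were combined with targeted agents, each dosed in half-log steps down from clinical Cmax, or from 10 microM when Cmax was unknown.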

[1] = curve of first compound, second compound 0.0316 µM
[2] = curve of first compound, second compound 0.1 µM
[3] = curve of first compound, second compound 0.316 µM
[4] = curve of first compound, second compound 1 µM
[5] = second compound 0.0316 µM, first compound 0.0316 µM
[6] = second compound 0.0316 µM, first compound 0.1 µM
[7] = second compound 0.0316 µM, first compound 0.316 µM
[8] = second compound 0.0316 µM, first compound 1 µM
[9] = second compound 0.0316 µM, first compound 3.16 µM
[10] = second compound 0.0316 µM, first compound 10 µM
[11] = second compound 0.1 µM, first compound 0.0316 µM
[12] = second compound 0.1 µM, first compound 0.1 µM
[13] = second compound 0.1 µM, first compound 0.316 µM
[14] = second compound 0.1 µM, first compound 1 µM
[15] = second compound 0.1 µM, first compound 3.16 µM
[16] = second compound 0.1 µM, first compound 10 µM
[17] = second compound 0.316 µM, first compound 0.0316 µM
[18] = second compound 0.316 µM, first compound 0.1 µM
[19] = second compound 0.316 µM, first compound 0.316 µM
[20] = second compound 0.316 µM, first compound 1 µM
[21] = second compound 0.316 µM, first compound 3.16 µM
[22] = second compound 0.316 µM, first compound 10 µM
[23] = second compound 1 µM, first compound 0.0316 µM
[24] = second compound 1 µM, first compound 0.1 µM
[25] = second compound 1 µM, first compound 0.316 µM
[26] = second compound 1 µM, first compound 1 µM
[27] = second compound 1 µM, first compound 3.16 µM
[28] = second compound 1 µM, first compound 10 µM
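Also: viability read after seven days of drug exposure.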
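For viability, T/C in this document: 100% = DMSO vehicle control viability.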

`Cc1nc(N2CCC3(CC2)COC(C)C3N)c(CO)nc1Sc1ccnc(N)c1Cl` (configuration not stated) + C=CC(=O)N1CCN(c2nc(OCC3CCCN3C)nc3c(F)c(-c4nc(N)cc(C)c4C(F)(F)F)c(Cl)cc23)C(C)C1 was tested, and the IC50 (curve of first compound, second compound 0.00316 µM) was > 10 µM, the IC50 (curve of first compound, second compound 0.01 µM) was > 10 µM and the IC50 [1] was > 10 µM. For the same molecule, the IC50 [2] was > 10 µM, the IC50 [3] was > 10 µM and the IC50 [4] was 9.77 µM. For the same molecule, the viability, T/C (second compound 0.00316 µM, first compound 0.0316 µM) was 87%, the viability, T/C (second compound 0.00316 µM, first compound 0.1 µM) was 80.8% and the viability, T/C (second compound 0.00316 µM, first compound 0.316 µM) was 70.6%. It also gave a viability, T/C (second compound 0.00316 µM, first compound 1 µM) of 71%, a viability, T/C (second compound 0.00316 µM, first compound 3.16 µM) of 64.5% and a viability, T/C (second compound 0.00316 µM, first compound 10 µM) of 59.6%. The viability, T/C (second compound 0.01 µM, first compound 0.0316 µM) was 91.6%, the viability, T/C (second compound 0.01 µM, first compound 0.1 µM) was 78.9% and the viability, T/C (second compound 0.01 µM, first compound 0.316 µM) was 71.9%. The viability, T/C (second compound 0.01 µM, first compound 1 µM) was 68.7%, the viability, T/C (second compound 0.01 µM, first compound 3.16 µM) was 64.5% and the viability, T/C (second compound 0.01 µM, first compound 10 µM) was 51.9%. For the same molecule, the viability, T/C [5] was 88.8%, the viability, T/C [6] was 79% and the viability, T/C [7] was 71.8%. The viability, T/C [8] was 67.6%, the viability, T/C [9] was 63% and the viability, T/C [10] was 54.9%. It also gave a viability, T/C [11] of 85.1%, a viability, T/C [12] of 78.7% and a viability, T/C [13] of 78.6%. It also gave a viability, T/C [14] of 67.5%, a viability, T/C [15] of 65.2% and a viability, T/C [16] of 57.7%. It also gave a viability, T/C [17] of 81.1%, a viability, T/C [18] of 81.4% and a viability, T/C [19] of 75.4%. The viability, T/C [20] was 68.6%, the viability, T/C [21] was 65.3% and the viability, T/C [22] was 55.4%. The viability, T/C [23] was 86.8%, the viability, T/C [24] was 80.3% and the viability, T/C [25] was 68.6%. The viability, T/C [26] was 59.9%, the viability, T/C [27] was 60.5% and the viability, T/C [28] was 47.5%.

For `CC(=O)OC12COC1CC(O)C1(C)C(=O)C(O)C3=C(C)C(OC(=O)C(O)C(NC(=O)OC(C)(C)C)c4ccccc4)CC(O)(C(OC(=O)c4ccccc4)C21)C3(C)C` (configuration not stated) + C#Cc1c(F)ccc2cc(O)cc(-c3ncc4c(N5CC6CCC(C5)N6)nc(OCC56CCCN5CC(F)C6)nc4c3F)c12, the IC50 [1] was > 10 µM, the IC50 [2] was > 10 µM and the IC50 [3] was > 10 µM. The IC50 [4] was > 10 µM, the IC50 (curve of first compound, second compound 3.16 µM) was < 0.0316 µM and the IC50 (curve of first compound, second compound 10 µM) was < 0.0316 µM. The viability, T/C [5] was 67.3%, the viability, T/C [6] was 67% and the viability, T/C [7] was 69.9%. It also gave a viability, T/C [8] of 80.3%, a viability, T/C [9] of 85.8% and a viability, T/C [10] of 90.5%. For the same molecule, the viability, T/C [11] was 66.9%, the viability, T/C [12] was 70.5% and the viability, T/C [13] was 66%. The viability, T/C [14] was 80%, the viability, T/C [15] was 89.1% and the viability, T/C [16] was 87.7%. It also gave a viability, T/C [17] of 70.7%, a viability, T/C [18] of 68% and a viability, T/C [19] of 64.8%. The viability, T/C [20] was 72.6%, the viability, T/C [21] was 76.8% and the viability, T/C [22] was 81.8%. The viability, T/C [23] was 59.5%, the viability, T/C [24] was 59.1% and the viability, T/C [25] was 59%. The viability, T/C [26] was 58.8%, the viability, T/C [27] was 67.3% and the viability, T/C [28] was 61%. It also gave a viability, T/C (second compound 3.16 µM, first compound 0.0316 µM) of 47.6%, a viability, T/C (second compound 3.16 µM, first compound 0.1 µM) of 44.2% and a viability, T/C (second compound 3.16 µM, first compound 0.316 µM) of 42.4%. It also gave a viability, T/C (second compound 3.16 µM, first compound 1 µM) of 50.4%, a viability, T/C (second compound 3.16 µM, first compound 3.16 µM) of 49.7% and a viability, T/C (second compound 3.16 µM, first compound 10 µM) of 45.3%. It also gave a viability, T/C (second compound 10 µM, first compound 0.0316 µM) of 32.3%, a viability, T/C (second compound 10 µM, first compound 0.1 µM) of 30.4% and a viability, T/C (second compound 10 µM, first compound 0.316 µM) of 25.2%. It also gave a viability, T/C (second compound 10 µM, first compound 1 µM) of 32%, a viability, T/C (second compound 10 µM, first compound 3.16 µM) of 29.6% and a viability, T/C (second compound 10 µM, first compound 10 µM) of 30.1%.

In the case of `CC(C)n1nc(-c2ccc3oc(N)nc3c2)c2c(N)ncnc21` + CCn1c(-c2cc(N3CCN(C)CC3)cnc2C(C)OC)c2c3cc(ccc31)-c1csc(n1)CC(NC(=O)C1CC1C)C(=O)N1CCCC(N1)C(=O)OCC(C)(C)C2, the IC50 (curve of first compound, second compound 0.000949 µM) is reported as 0.0719 µM, the IC50 (curve of first compound, second compound 0.003 µM) is reported as > 0.1 µM and the IC50 (curve of first compound, second compound 0.00949 µM) is reported as 0.0342 µM. For the same molecule, the IC50 (curve of first compound, second compound 0.03 µM) was 0.00403 µM, the IC50 (curve of first compound, second compound 0.0949 µM) was < 0.000316 µM and the IC50 (curve of first compound, second compound 0.3 µM) was < 0.000316 µM. For the same molecule, the viability, T/C (second compound 0.000949 µM, first compound 0.000316 µM) was 100%, the viability, T/C (second compound 0.000949 µM, first compound 0.001 µM) was 86.4% and the viability, T/C (second compound 0.000949 µM, first compound 0.00316 µM) was 80.3%. The viability, T/C (second compound 0.000949 µM, first compound 0.01 µM) was 81.2%, the viability, T/C (second compound 0.000949 µM, first compound 0.0316 µM) was 68.6% and the viability, T/C (second compound 0.000949 µM, first compound 0.1 µM) was 42%. It also gave a viability, T/C (second compound 0.003 µM, first compound 0.000316 µM) of 98.5%, a viability, T/C (second compound 0.003 µM, first compound 0.001 µM) of 84.8% and a viability, T/C (second compound 0.003 µM, first compound 0.00316 µM) of 71.8%. It also gave a viability, T/C (second compound 0.003 µM, first compound 0.01 µM) of 68.1%, a viability, T/C (second compound 0.003 µM, first compound 0.0316 µM) of 66.5% and a viability, T/C (second compound 0.003 µM, first compound 0.1 µM) of 51.1%. It also gave a viability, T/C (second compound 0.00949 µM, first compound 0.000316 µM) of 93.3%, a viability, T/C (second compound 0.00949 µM, first compound 0.001 µM) of 68.5% and a viability, T/C (second compound 0.00949 µM, first compound 0.00316 µM) of 70%. It also gave a viability, T/C (second compound 0.00949 µM, first compound 0.01 µM) of 59.1%, a viability, T/C (second compound 0.00949 µM, first compound 0.0316 µM) of 46.4% and a viability, T/C (second compound 0.00949 µM, first compound 0.1 µM) of 46.8%. The viability, T/C (second compound 0.03 µM, first compound 0.000316 µM) was 74.3%, the viability, T/C (second compound 0.03 µM, first compound 0.001 µM) was 45.1% and the viability, T/C (second compound 0.03 µM, first compound 0.00316 µM) was 55.8%. It also gave a viability, T/C (second compound 0.03 µM, first compound 0.01 µM) of 48.6%, a viability, T/C (second compound 0.03 µM, first compound 0.0316 µM) of 39.2% and a viability, T/C (second compound 0.03 µM, first compound 0.1 µM) of 28.7%. The viability, T/C (second compound 0.0949 µM, first compound 0.000316 µM) was 47.6%, the viability, T/C (second compound 0.0949 µM, first compound 0.001 µM) was 38.6% and the viability, T/C (second compound 0.0949 µM, first compound 0.00316 µM) was 35.4%. The viability, T/C (second compound 0.0949 µM, first compound 0.01 µM) was 32.8%, the viability, T/C (second compound 0.0949 µM, first compound 0.0316 µM) was 30% and the viability, T/C (second compound 0.0949 µM, first compound 0.1 µM) was 21.3%. It also gave a viability, T/C (second compound 0.3 µM, first compound 0.000316 µM) of 41%, a viability, T/C (second compound 0.3 µM, first compound 0.001 µM) of 34.8% and a viability, T/C (second compound 0.3 µM, first compound 0.00316 µM) of 27.3%. For the same molecule, the viability, T/C (second compound 0.3 µM, first compound 0.01 µM) was 28.2%, the viability, T/C (second compound 0.3 µM, first compound 0.0316 µM) was 22.6% and the viability, T/C (second compound 0.3 µM, first compound 0.1 µM) was 15.7%.

`CC1(O)CCCC1n1c(=O)c(C(F)F)cc2cnc(NC3CCN(S(C)(=O)=O)CC3)nc21` (configuration not stated) was tested, and the viability, T/C (compound 0.0316 µM) was 93.3% [middle of 4 runs], the viability, T/C (compound 0.1 µM) was 98.2% [middle of 4 runs] and the viability, T/C (compound 0.316 µM) was 104% [middle of 4 runs]. For the same molecule, the viability, T/C (compound 3.16 µM) was 123% (2×) and 107% and 97.5%, the viability, T/C (compound 10 µM) was 64.5% [middle of 4 runs] and the IC50 (curve of compound) was > 10 µM.
